Data from patent US11384074B2, “Pesticidally active pyrrole derivatives” (Syngenta Participations AG, priority 2017, dated 2022).

Assays:
Type in all cases: in vivo
[1] = tested on: Diabrotica Balteata (Corn Root Worm); experiment: Diabrotica balteata (corn root worm) mortality on sprayed maize sprouts; settings: 96 h, application rate of 200 ppm, L2 larvae, assessed 4 days after infestation, read-out: control (mortality)
Protocol: Diabrotica Balteata (Corn Root Worm):
Maize sprouts placed onto an agar layer in 24-well microtiter plates were treated with aqueous test solutions prepared from 10′000 ppm DMSO stock solutions by spraying. After drying, the plates were infested with L2 larvae (6 to 10 per well). The samples were assessed for mortality 4 days after infestation.

[2] = tested on: Euschistus heros (Neotropical Brown Stink Bug); experiment: Euschistus heros feeding/contact activity on sprayed soybean leaves; settings: 120 h, application rate of 200 ppm, N2 nymphs, assessed 5 days after infestation, read-out: control (mortality)
Protocol: Euschistus heros (Neotropical Brown Stink Bug): Feeding/Contact Activity
Soybean leaves on agar in 24-well microtiter plates were sprayed with aqueous test solutions prepared from 10′000 ppm DMSO stock solutions. After drying the leaves were infested with N2 nymphs. The samples were assessed for mortality 5 days after infestation.

[3] = tested on: Myzus persicae (Green Peach Aphid); experiment: Myzus persicae feeding/contact activity on sprayed sunflower leaf discs; settings: foliar, 144 h, application rate of 200 ppm, aphid population of mixed ages, assessed 6 days after infestation, read-out: control (mortality)
Protocol: Myzus persicae (Green Peach Aphid): Feeding/Contact Activity
Sunflower leaf discs were placed onto agar in a 24-well microtiter plate and sprayed with aqueous test solutions prepared from 10′000 ppm DMSO stock solutions. After drying, the leaf discs were infested with an aphid population of mixed ages. The samples were assessed for mortality 6 days after infestation.

[4] = tested on: Plutella xylostella (Diamond Back Moth); experiment: Plutella xylostella feeding/contact activity on treated artificial diet; settings: 120 h, application rate of 200 ppm, L2 larvae, assessed 5 days after infestation, read-out: control (mortality)
Protocol: Plutella xylostella (Diamond Back Moth): Feeding/Contact Activity
24-well microtiter plates with artificial diet were treated with aqueous test solutions prepared from 10′000 ppm DMSO stock solutions by pipetting. After drying, the plates were infested with L2 larvae (10 to 15 per well). The samples were assessed for mortality 5 days after infestation.

[5] = tested on: Spodoptera littoralis (Egyptian Cotton Leaf Worm); experiment: Spodoptera littoralis feeding/contact activity on sprayed cotton leaf discs; settings: foliar, 72 h, application rate of 200 ppm, L1 larvae, assessed 3 days after infestation, read-out: control (mortality)
Protocol: Spodoptera littoralis (Egyptian Cotton Leaf Worm): Feeding/Contact Activity
Cotton leaf discs were placed onto agar in 24-well microtiter plates and sprayed with aqueous test solutions prepared from 10′000 ppm DMSO stock solutions. After drying the leaf discs were infested with five L1 larvae. The samples were assessed for mortality 3 days after infestation.

[6] = tested on: Tetranychus urticae (Two-Spotted Spider Mite); experiment: Tetranychus urticae feeding/contact activity on sprayed bean leaf discs; settings: foliar, 192 h, application rate of 200 ppm, mite population of mixed ages, assessed 8 days after infestation, read-out: control (mortality on mixed population, mobile stages)
Protocol: Tetranychus urticae (Two-Spotted Spider Mite): Feeding/Contact Activity
Bean leaf discs on agar in 24-well microtiter plates were sprayed with aqueous test solutions prepared from 10′000 ppm DMSO stock solutions. After drying the leaf discs were infested with a mite population of mixed ages. The samples were assessed for mortality on mixed population (mobile stages) 8 days after infestation.

[7] = tested on: Thrips tabaci (Onion thrips); experiment: Thrips tabaci feeding/contact activity on sprayed sunflower leaf discs; settings: foliar, 144 h, application rate of 200 ppm, thrips population of mixed ages, assessed 6 days after infestation, read-out: control (mortality)
Protocol: Thrips tabaci (Onion thrips): Feeding/Contact Activity
Sunflower leaf discs were placed on agar in 24-well microtiter plates and sprayed with aqueous test solutions prepared from 10′000 ppm DMSO stock solutions. After drying the leaf discs were infested with a thrips population of mixed ages. The samples were assessed for mortality 6 days after infestation.

Measured: mortality at 200 ppm

Cn1cc(C(F)(F)C(F)(F)F)c(C(F)(F)F)c1-n1cc(-c2cc(C(=O)NC3CC3)c(C#N)s2)cn1 [Compound 1, 2-cyano-N-cyclopropyl-5-[1-[1-methyl-4-(1,1,2,2,2-pentafluoroethyl)-3-(trifluoromethyl)pyrrol-2-yl]pyrazol-4-yl]thiophene-3-carboxamide]
≥ 80%: all assays above

Cn1cc(C(F)(F)F)c(C(F)(F)C(F)(F)F)c1-n1cc(-c2cc(C(=O)NC3CC3)c(C#N)s2)cn1 [Compound 2, 2-cyano-N-cyclopropyl-5-[1-[1-methyl-3-(1,1,2,2,2-pentafluoroethyl)-4-(trifluoromethyl)pyrrol-2-yl]pyrazol-4-yl]thiophene-3-carboxamide]
not listed: [7]
≥ 80%: all other assays above

Cn1cc(C(F)(F)C(F)(F)F)c(C(F)(F)F)c1-c1cc(-c2cc(C(=O)NC3CC3)c(C#N)s2)on1 [Compound 3, 2-cyano-N-cyclopropyl-5-[3-[1-methyl-4-(1,1,2,2,2-pentafluoroethyl)-3-(trifluoromethyl)pyrrol-2-yl]isoxazol-5-yl]thiophene-3-carboxamide]
not listed: [3]
≥ 80%: all other assays above

Cn1cc(C(F)(F)F)c(C(F)(F)C(F)(F)F)c1-c1cc(-c2cc(C(=O)NC3CC3)c(C#N)s2)on1 [Compound 4, 2-cyano-N-cyclopropyl-5-[3-[1-methyl-3-(1,1,2,2,2-pentafluoroethyl)-4-(trifluoromethyl)pyrrol-2-yl]isoxazol-5-yl]thiophene-3-carboxamide]
not listed: [2] | [3]
≥ 80%: all other assays above

Cn1c(-n2cc(-c3ccc(Cl)c(C(=O)NC4(C#N)CC4)c3)cn2)cc(C(F)(C(F)(F)F)C(F)(F)F)c1Cl [Compound 5, 2-chloro-5-[1-[5-chloro-1-methyl-4-[1,2,2,2-tetrafluoro-1-(trifluoromethyl)ethyl]pyrrol-2-yl]pyrazol-4-yl]-N-(1-cyanocyclopropyl)benzamide]
≥ 80%: [1] | [4] | [5] | [6]

Cn1c(Cl)c(C(F)(C(F)(F)F)C(F)(F)F)c(Br)c1-n1cc(-c2ccc(Cl)c(C(=O)NC3(C#N)CC3)c2)cn1 [Compound 6, 5-[1-[3-bromo-5-chloro-1-methyl-4-[1,2,2,2-tetrafluoro-1-(trifluoromethyl)ethyl]pyrrol-2-yl]pyrazol-4-yl]-2-chloro-N-(1-cyanocyclopropyl)benzamide]
≥ 80%: [1] | [4] | [5] | [6]

Cn1c(Br)cc(C(F)(C(F)(F)F)C(F)(F)F)c1-c1cc(-c2ccc(Cl)c(C(=O)NC3(C#N)CC3)c2)on1 [Compound 7, 5-[3-[5-bromo-1-methyl-3-[1,2,2,2-tetrafluoro-1-(trifluoromethyl)ethyl]pyrrol-2-yl]isoxazol-5-yl]-2-chloro-N-(1-cyanocyclopropyl)benzamide]
≥ 80%: [1] | [3] | [4] | [5]
